Test results from PubChem BioAssay AID588673 (Johns Hopkins Ion Channel Center, 2011).
Calls of active or inactive are those of the source.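 Rule for the calls: active = raises KCNQ1 potassium channel current at one or more doses and a concentration response curve can be fitted; inactive = no activation at any dose, or no fittable curve.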

Target: Potassium voltage-gated channel subfamily KQT member 1 (Homo sapiens) (UniProt P51787)
Experiment: human KCNQ1 channel activators, SAR follow-up, automated patch clamp, CHO cells (AID 588673)

Chain of Potassium voltage-gated channel subfamily KQT member 1 (Homo sapiens) (P51787 whole entry, looked up): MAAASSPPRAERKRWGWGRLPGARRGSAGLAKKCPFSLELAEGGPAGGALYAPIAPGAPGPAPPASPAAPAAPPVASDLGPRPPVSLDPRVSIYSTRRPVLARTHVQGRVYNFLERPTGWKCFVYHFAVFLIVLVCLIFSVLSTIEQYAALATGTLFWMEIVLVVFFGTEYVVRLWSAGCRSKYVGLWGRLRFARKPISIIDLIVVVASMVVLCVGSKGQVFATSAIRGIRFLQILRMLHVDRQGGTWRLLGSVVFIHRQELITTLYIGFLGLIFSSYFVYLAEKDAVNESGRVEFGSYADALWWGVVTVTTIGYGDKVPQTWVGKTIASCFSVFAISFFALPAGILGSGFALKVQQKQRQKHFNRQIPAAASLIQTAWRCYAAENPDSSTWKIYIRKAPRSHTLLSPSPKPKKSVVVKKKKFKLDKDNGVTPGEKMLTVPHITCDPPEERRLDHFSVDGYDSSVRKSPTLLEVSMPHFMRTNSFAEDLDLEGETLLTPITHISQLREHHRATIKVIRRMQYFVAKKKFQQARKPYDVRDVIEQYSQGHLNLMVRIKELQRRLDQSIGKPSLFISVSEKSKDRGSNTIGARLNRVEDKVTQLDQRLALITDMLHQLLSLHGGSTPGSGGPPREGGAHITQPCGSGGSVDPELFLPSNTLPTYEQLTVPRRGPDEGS

| IC50, inhibition of current | current activation, percent increase (at 30 µM (top of the series)) | SMILES |
| --- | --- | --- |
| 1.39 µM |  | COc1ccc(-c2csc(NC(=O)[C@H]3CCCCN3S(=O)(=O)c3ccccc3)n2)cc1 |
| 1.66 µM |  | COc1ccc(-c2csc(NC(=O)C3CCCCN3S(=O)(=O)c3ccccc3)n2)cc1 (stereo not drawn) |
|  | inactive | COc1ccc(-c2csc(NC(=O)[C@@H]3CCCCN3S(=O)(=O)c3ccccc3)n2)cc1 |
